Data from EPA's ToxValDB 9.5.
Converted amounts (≈) assume the structure as drawn. “And” between values parts separate entries of the source, which are not always exact repeats. Equal entries are not always repeated.

Legend:
[1] = test system: Rattus norvegicus; conditions: uterotrophic, Active
[2] = test system: Rattus norvegicus; conditions: subchronic, duration: 13 weeks, oral, gavage, M/F, Fischer 344
[3] = test system: Rattus norvegicus; conditions: oral
[4] = test system: Mus musculus; conditions: for LD50: acute
[5] = test system: Rattus norvegicus
[6] = subchronic, M/F, forestomach lesions, kidney toxicity
[7] = chronic, duration: 91 days, oral, gavage
[8] = chronic, duration: 103 weeks, oral, diet, B6C3F1
[9] = subchronic, duration: 12 weeks, oral, diet, M, B6C3F1
[10] = chronic, duration: 103 weeks, oral, diet, F, Fischer 344
[11] = chronic, duration: 103 weeks, oral, diet, M, Fischer 344
[12] = developmental, duration: 10 days, oral, gavage, Crl:CD(SD)
[13] = subchronic, duration: 12 weeks, oral, diet, F, Fischer 344
[14] = subchronic, duration: 12 weeks, oral, diet, M, Fischer 344
[15] = developmental, M/F, reduced pup weight
[16] = subchronic, M/F, clinical sign (e.g., hunched postures) and reduced body weight
[17] = chronic, duration: 2 years, diet, M/F, hematological effects (females)
[18] = chronic, duration: 2 years, diet, M/F, reduced body weight, increased bun
[19] = chronic, duration: 2 years, diet, M/F, reduced body weight gain (males) increased food and water consumption (males) and females
[20] = developmental, M/F, reduced body weight in parents and pups during lactation

Question: With `O=c1cc(-c2ccc(O)cc2)oc2cc(O)cc(O)c12` [Apigenin] as the compound, how does the LEL ([1]; duration: 7 days, oral) read?
Answer: The LEL was 5 mg/kg-day.

Question: `O=Cc1ccccc1` [Benzaldehyde] was tested. Which NOEL ([2]; Deaths + Body Weight Changes: decrease + Histopathology: Brain/cerebellum -Degeneration Brain/cerebellum -Necrosis Brain/cerebellum -…) did it give?
Answer: The NOEL was 200 mg/kg-day.

Question: And the LOAEL [3, 6]?
Answer: Its LOAEL is 400 mg/kg-day.

Question: And the NOEL [3, 6]?
Answer: The NOEL was 143 mg/kg-day and 200 mg/kg-day.

Question: What does the source list for `O=C(c1ccccc1)c1ccccc1` [Benzophenone]?
Answer: LEL ([1]; duration: 3 days, injection, intraperitoneal): 300 mg/kg-day; LEL ([1]; duration: 3 days, injection, subcutaneous): 500 mg/kg-day; LEL ([1]; duration: 3 days, oral): 400 mg/kg-day

Question: With `CCCCC(CC)COC(=O)CCCCCCCCC(=O)OCC(CC)CCCC` (centres undefined) [Bis(2-ethylhexyl) decanedioate] as the compound, how does the LD50 ([4]; oral, gavage) read?
Answer: Its LD50 is 9500 mg/kg.

Question: And the LD50 ([5]; acute, oral, gavage)?
Answer: Its LD50 is 17000 mg/kg.

Question: `O=C([O-])c1[nH]n(-c2ccc(S(=O)(=O)[O-])cc2)c(=O)c1N=Nc1ccc(S(=O)(=O)[O-])cc1.[Na+].[Na+].[Na+]` [C.I. Acid Yellow 23] was tested. Which “NOAEL (% diet)” value ([4]; subchronic, duration: 3 months, oral, diet, CD1) did it give?
Answer: The value was 5.

Question: And the NOAEL ([4]; subchronic, duration: 3 months, oral, diet, F, CD1)?
Answer: Its NOAEL is 9750 mg/kg-day.

Question: What about the NOAEL ([4]; subchronic, duration: 3 months, oral, diet, M, CD1) of the same compound?
Answer: Its NOAEL is 8100 mg/kg-day.

Question: What about the “NOAEL (% diet)” value ([5]; chronic, duration: 113 weeks, oral, diet) of the same compound?
Answer: The value was 5.

Question: And the NOAEL ([5]; chronic, duration: 113 weeks, oral, diet, F)?
Answer: The NOAEL was 3350 mg/kg-day.

Question: And the NOAEL ([5]; chronic, duration: 113 weeks, oral, diet, M)?
Answer: The NOAEL was 2640 mg/kg-day.

Question: And the NOAEL ([5]; developmental, duration: 19 days, oral, gavage, Osborne-Mendel)?
Answer: Its NOAEL is greater than 1000 mg/kg-day.

Question: What about the “NOAEL (% diet)” value ([5]; reproduction developmental, duration: 114 weeks, oral, diet) of the same compound?
Answer: The value was 5.

Question: And the NOAEL ([5]; reproduction developmental, duration: 114 weeks, oral, diet, M)?
Answer: Its NOAEL is 2640 mg/kg-day and 3350 mg/kg-day.

Question: And the NOAEL ([5]; reproduction developmental, duration: 19 days, oral, gavage, F, Osborne-Mendel)?
Answer: Its NOAEL is greater than 1000 mg/kg-day.

Question: `Cc1cc(N=Nc2c(O)ccc3ccccc23)c(S(=O)(=O)[O-])cc1Cl.Cc1cc(N=Nc2c(O)ccc3ccccc23)c(S(=O)(=O)[O-])cc1Cl.[Ba+2]` [C.I. Pigment Red 53] was tested. Which NOAEL [4, 7] did it give?
Answer: The NOAEL was 90 mg/kg-day.

Question: What about the NOAEL [5, 7] of the same compound?
Answer: The NOAEL was 25 mg/kg-day.

Question: What about the NOAEL ([5]; reproduction developmental, duration: 30 months, oral, gavage, F) of the same compound?
Answer: The NOAEL was less than 10000 ppm.

Question: What about the NOAEL ([5]; reproduction developmental, duration: 30 months, oral, gavage, generation: F0) of the same compound?
Answer: The NOAEL was greater than 10000 ppm.

Question: And the NOAEL ([5]; reproduction developmental, duration: 30 months, oral, gavage, generation: F1)?
Answer: Its NOAEL is greater than 10000 ppm.

Question: For `O=S(=O)([O-])c1ccc(N=Nc2c(O)ccc3cc(S(=O)(=O)[O-])ccc23)cc1.[Na+].[Na+]` [FD&C Yellow 6], which LD50 ([4]; injection, intraperitoneal, ICI Alderley Park Strain) is on record?
Answer: The LD50 was ≥ 4600 mg/kg and ≤ 5500 mg/kg.

Question: What about the LD50 ([4]; oral, ICI Alderley Park Strain) of the same compound?
Answer: Its LD50 is greater than 6000 mg/kg.

Question: And the LOAEL [4, 8]?
Answer: The LOAEL was 4620 mg/kg-day.

Question: What about the NOAEL [4, 8] of the same compound?
Answer: The NOAEL was 2310 mg/kg-day.

Question: What about the LOAEL [4, 9] of the same compound?
Answer: The LOAEL was 19700 mg/kg-day.

Question: What about the NOAEL [4, 9] of the same compound?
Answer: The NOAEL was 9850 mg/kg-day.

Question: And the LD50 ([5]; acute, injection, intraperitoneal, Carworth)?
Answer: Its LD50 is 3800 mg/kg.

Question: And the LD50 ([5]; acute, oral, Carworth)?
Answer: The LD50 was greater than 10000 mg/kg.

Question: What about the LD50 ([5]; acute, oral, gavage, Wistar) of the same compound?
Answer: The LD50 was greater than 2000 mg/kg.

Question: What about the LOAEL [5, 10] of the same compound?
Answer: Its LOAEL is greater than 1950 mg/kg-day.

Question: And the NOAEL [5, 10]?
Answer: Its NOAEL is 1950 mg/kg-day.

Question: And the LOAEL [5, 11]?
Answer: The LOAEL was 1950 mg/kg-day.

Question: And the NOAEL [5, 11]?
Answer: Its NOAEL is 975 mg/kg-day.

Question: What about the LOAEL [5, 12] of the same compound?
Answer: The LOAEL was 300 mg/kg-day.

Question: And the NOAEL [5, 12]?
Answer: The NOAEL was 100 mg/kg-day.

Question: What about the NOAEL ([5]; reproduction developmental, duration: 126 days, oral, diet, Charles River Albino CD (R), generation: F0) of the same compound?
Answer: Its NOAEL is 1500 mg/kg-day.

Question: And the NOAEL ([5]; reproduction developmental, duration: 126 days, oral, diet, Charles River Albino CD (R), generation: F1)?
Answer: Its NOAEL is 1500 mg/kg-day.

Question: What about the NOAEL ([5]; reproduction developmental, oral, diet, Crl:CD(SD)) of the same compound?
Answer: The NOAEL was 500 mg/kg-day.

Question: What about the LOAEL [5, 13] of the same compound?
Answer: The LOAEL was 1200 mg/kg-day.

Question: And the NOAEL [5, 13]?
Answer: Its NOAEL is 576 mg/kg-day.

Question: And the LOAEL [5, 14]?
Answer: Its LOAEL is 2400 mg/kg-day.

Question: What about the NOAEL [5, 14] of the same compound?
Answer: The NOAEL was 1200 mg/kg-day.

Question: How did the LD50 ([4]; injection, Intraperitoneal) turn out when `CCN(CC)c1ccccc1` [N,N-Diethylaniline] was run?
Answer: Its LD50 is 870 mg/kg.

Question: And the LD50 ([5]; acute, dermal)?
Answer: The LD50 was 5000 mg/kg.

Question: And the LC50 ([5]; acute, inhalation)?
Answer: The LC50 was 1.92 mg/L (≈ 12.9 µM).

Question: What about the LD50 ([5]; acute, oral) of the same compound?
Answer: The LD50 was 720 mg/kg.

Question: What about the LD50 ([5]; acute, oral, gavage, Wistar) of the same compound?
Answer: Its LD50 is 606 mg/kg.

Question: And the LOAEL ([5]; short-term, duration: 28 days, oral, gavage, Wistar)?
Answer: Its LOAEL is 10 mg/kg-day.

Question: For `CC(=O)CC(=O)N(C)C` [N,N-Dimethylacetoacetamide], which LD50 ([4]; oral, gavage) is on record?
Answer: Its LD50 is no less than 3200 mg/kg.

Question: What about the LD50 ([5]; acute, oral, gavage) of the same compound?
Answer: The LD50 was no less than 3200 mg/kg.

Question: With `CCCCCCCCCCCCCCCCCC(=O)[O-].CCCCCCCCCCCCCCCCCC(=O)[O-].[Ba+2]` [Octadecanoic acid, barium salt] as the compound, how does the LD50 ([4]; oral) read?
Answer: Its LD50 is 1830 mg/kg.

Question: Which results are given for `C=C(C)[C@H]1Cc2c(ccc3c2O[C@@H]2COc4cc(OC)c(OC)cc4[C@@H]2C3=O)O1` [Rotenone]?
Answer: LEL [3, 15]: 1.88 mg/kg-day; NOEL [3, 15]: 0.38 mg/kg-day

Question: Which results are given for `[N-]=[N+]=[N-].[Na+]` [Sodium azide]?
Answer: NOEL ([2]; Deaths + Clinical Observation: Hunched posture Ruffled fur Lethargy Decreased appetite Impaired breathing + Body Weight Changes: decrease + …): < 1.25 mg/kg-day; LOAEL [3, 16]: 10 mg/kg-day; NOAEL [3, 16]: 5 mg/kg-day

Question: With `CCNc1nc(NC(C)(C)C)nc(SC)n1` [Terbutryn] as the compound, how does the LEL [3, 17] read?
Answer: The LEL was 15 mg/kg-day.

Question: And the NOEL [3, 17]?
Answer: The NOEL was 0.1 mg/kg-day.

Question: For `CCN(CC)C(=O)SCc1ccc(Cl)cc1` [Thiobencarb], which LEL [3, 18] is on record?
Answer: Its LEL is 5 mg/kg-day.

Question: And the NOEL [3, 18]?
Answer: The NOEL was 1 mg/kg-day.

Question: How did the LEL [3, 19] turn out when `CC1(C)[C@H](C(=O)O[C@H](C#N)c2cccc(Oc3ccccc3)c2)[C@@H]1C(Br)C(Br)(Br)Br` (some centres undefined) [Tralomethrin] was run?
Answer: The LEL was 3 mg/kg-day.

Question: What about the NOEL [3, 19] of the same compound?
Answer: Its NOEL is 0.75 mg/kg-day.

Question: And the LEL [3, 20]?
Answer: The LEL was 3 mg/kg-day.

Question: What about the NOEL [3, 20] of the same compound?
Answer: Its NOEL is 0.75 mg/kg-day.

Question: `[O]=[V](=[O])[O][V](=[O])=[O]` [Vanadium oxide (V2O5)] was tested. Which NOAEL ([3]; chronic, reduced hair cystine) did it give?
Answer: Its NOAEL is 0.89 mg/kg-day.
